Assay results reported in US8415469B2, “Compounds and methods for kinase modulation, and indications therefor” (Plexxikon Inc., priority 2005, dated 2013).

Legend:
Format in all cases: biochemical
[1] = biological target: T1, Fms (Homo sapiens, UniProt P07333); experiment: AlphaScreen kinase assay, Fms; details: read-out: IC50, activity toward kinase Fms
T1 construct: purchased Upstate Biotechnology

[2] = biological target: T2, Kit (Homo sapiens, UniProt P10721); experiment: AlphaScreen kinase assay, Kit; details: read-out: IC50, activity toward kinase Kit
T2 construct: P1332.N6 BI PTP KIT M552-K948-X COD; His6 (N); made in house; host or cells: E. coli (PTP1B co-expressed)

[3] = biological target: T3, B-Raf V600E (Homo sapiens, UniProt P15056, V600E); experiment: AlphaScreen kinase assay, B-Raf V600E; details: read-out: IC50, activity toward kinase B-Raf V600E
T3 construct: P4254. pFastBacBD-CDC37 BRAF D437-K722-X, V600E; His6 with pFastBac HT leader (TEV site) (N); made in house; host or cells: Sf9 (baculovirus; chaperone CDC37 co-expressed)

[4] = biological target: T4, FGFR1 (Homo sapiens, UniProt P11362, C488A/C584S); experiment: AlphaScreen kinase assay, FGFR1; details: read-out: IC50, activity toward kinase FGFR
T4 construct: P1351.pET N6 BI-PTP FGFR A458-E765-X C488A, C584S; made in house; host or cells: E. coli (PTP1B co-expressed)
T4 sequence (P11362 458-765 C488A/C584S): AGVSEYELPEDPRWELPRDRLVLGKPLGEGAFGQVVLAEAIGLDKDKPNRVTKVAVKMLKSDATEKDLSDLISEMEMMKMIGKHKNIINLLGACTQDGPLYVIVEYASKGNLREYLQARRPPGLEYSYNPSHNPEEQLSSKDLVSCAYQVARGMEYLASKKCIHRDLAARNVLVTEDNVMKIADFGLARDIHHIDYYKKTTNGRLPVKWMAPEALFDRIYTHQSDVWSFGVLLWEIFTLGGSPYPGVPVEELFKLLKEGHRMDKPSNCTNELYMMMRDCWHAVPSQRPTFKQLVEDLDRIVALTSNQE

T2 sequence (P10721 with tags, fused parts or gaps): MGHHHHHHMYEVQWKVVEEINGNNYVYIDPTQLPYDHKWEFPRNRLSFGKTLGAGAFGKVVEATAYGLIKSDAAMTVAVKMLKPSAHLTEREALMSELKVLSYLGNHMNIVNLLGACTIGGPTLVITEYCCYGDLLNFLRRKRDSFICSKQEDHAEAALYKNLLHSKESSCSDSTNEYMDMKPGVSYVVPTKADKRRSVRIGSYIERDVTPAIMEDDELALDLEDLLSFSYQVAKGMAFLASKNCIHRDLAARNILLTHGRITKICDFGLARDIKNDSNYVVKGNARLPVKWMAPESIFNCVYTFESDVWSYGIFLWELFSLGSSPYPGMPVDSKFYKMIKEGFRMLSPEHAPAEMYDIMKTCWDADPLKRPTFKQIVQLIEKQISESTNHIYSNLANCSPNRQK
T1 sequence (P07333 20-972): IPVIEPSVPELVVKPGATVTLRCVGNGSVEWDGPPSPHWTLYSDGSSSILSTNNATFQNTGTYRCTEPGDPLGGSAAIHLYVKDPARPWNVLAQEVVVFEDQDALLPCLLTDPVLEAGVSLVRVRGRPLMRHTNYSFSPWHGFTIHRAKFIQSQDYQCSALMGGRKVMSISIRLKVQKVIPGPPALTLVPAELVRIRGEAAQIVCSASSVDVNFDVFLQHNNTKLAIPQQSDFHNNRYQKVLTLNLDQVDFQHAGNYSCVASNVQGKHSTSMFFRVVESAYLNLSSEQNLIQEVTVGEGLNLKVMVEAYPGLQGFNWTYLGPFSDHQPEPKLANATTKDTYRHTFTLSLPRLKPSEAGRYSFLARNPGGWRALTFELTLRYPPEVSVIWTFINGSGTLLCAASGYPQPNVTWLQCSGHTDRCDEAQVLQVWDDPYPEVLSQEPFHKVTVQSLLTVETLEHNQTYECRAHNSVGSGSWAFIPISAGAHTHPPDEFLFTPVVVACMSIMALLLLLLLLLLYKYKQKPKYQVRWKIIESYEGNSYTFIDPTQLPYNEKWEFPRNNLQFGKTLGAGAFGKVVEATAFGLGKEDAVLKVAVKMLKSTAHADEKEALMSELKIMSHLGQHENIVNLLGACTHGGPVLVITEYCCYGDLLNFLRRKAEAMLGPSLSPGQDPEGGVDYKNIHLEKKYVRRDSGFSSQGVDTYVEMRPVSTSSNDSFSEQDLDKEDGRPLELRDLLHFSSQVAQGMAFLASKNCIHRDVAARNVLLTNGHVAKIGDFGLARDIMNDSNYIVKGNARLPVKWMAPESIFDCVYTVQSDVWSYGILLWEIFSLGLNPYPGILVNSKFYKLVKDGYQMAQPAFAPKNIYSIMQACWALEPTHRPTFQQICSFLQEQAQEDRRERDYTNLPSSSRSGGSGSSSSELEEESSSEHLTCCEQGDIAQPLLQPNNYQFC
T3 sequence (P15056 with tags, fused parts or gaps V600E): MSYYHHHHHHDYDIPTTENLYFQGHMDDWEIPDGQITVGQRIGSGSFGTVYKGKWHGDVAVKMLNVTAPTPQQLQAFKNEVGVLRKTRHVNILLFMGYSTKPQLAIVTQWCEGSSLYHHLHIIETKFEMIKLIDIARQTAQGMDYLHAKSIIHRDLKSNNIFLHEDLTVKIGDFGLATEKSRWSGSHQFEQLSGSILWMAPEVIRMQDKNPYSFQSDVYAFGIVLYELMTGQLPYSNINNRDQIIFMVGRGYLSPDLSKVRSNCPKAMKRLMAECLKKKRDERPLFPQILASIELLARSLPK

IC50 [2]	IC50 [4]	Structure (SMILES)	other results
		CCCCOc1ccc(NC(=O)Nc2cccc(C(=O)c3c[nH]c4ncc(-c5ccc(F)cc5)cc34)c2)cc1 [Compound P-1754, 1-(4-Butoxy-phenyl)-3-{3-[5-(4-fluoro-phenyl)-1H-pyrrolo[2,3-b]pyridine-3-carbonyl]-phenyl}-urea]	IC50 [1]: ≤ 10 µM
		COCCNC(=O)Nc1cccc(C(=O)c2c[nH]c3ncccc23)c1 [Compound P-1761, 1-(2-Methoxy-ethyl)-3-[3-(1H-pyrrolo[2,3-b]pyridine-3-carbonyl)-phenyl]urea]	IC50 [1]: ≤ 10 µM
≤ 10 µM		COC(=O)c1cnc2[nH]ccc2c1 [Compound P-1543]	
	≤ 10 µM	c1ccc(CNc2ccc(Cc3c[nH]c4ncccc34)cc2)cc1 [Compound P-0493]	IC50 [3]: ≤ 10 µM
≤ 10 µM		O=C(c1ccc(Cl)nc1)c1c[nH]c2ncc(Br)cc12 [Compound P-0499]	
		CC(=O)Nc1cccc(-c2cnc3[nH]cc(C(=O)c4cc(F)cc(C(F)(F)F)c4)c3c2)c1 [Compound P-1421, N-{3-[3-(3-Fluoro-5-trifluoromethyl-benzoyl)-1H-pyrrolo[2,3-b]pyridin-5-yl]-phenyl}-acetamide]	IC50 [1]: ≤ 10 µM
	≤ 10 µM	CS(=O)(=O)Nc1cccc(-c2cnc3[nH]cc(C(=O)c4cccc5c4OC(F)(F)O5)c3c2)c1 [Compound P-1516, N-{3-[3-(2,2-Difluoro-benzo[1,3]dioxole-4-carbonyl)-1H-pyrrolo[2,3-b]pyridin-5-yl]-phenyl}-methanesulfonamide]	IC50 [3]: ≤ 10 µM
≤ 10 µM		COc1cccc(Cc2c[nH]c3ncc(-c4ccccc4)cc23)c1 [Compound P-1084]	
≤ 10 µM		O=[N+]([O-])c1ccc(Sc2c[nH]c3ncc(Cl)cc23)nc1 [Compound P-1562]	
		COc1nc(NCc2ccc(C(F)(F)F)cc2)ccc1Cc1c[nH]c2ncccc12 [Compound P-1124]	IC50 [1]: ≤ 10 µM
		O=C(Nc1ccc(F)cc1)Nc1ccc(F)c(Cc2c[nH]c3ncc(Cl)cc23)c1F [Compound P-1657, 1-[3-(5-Chloro-1H-pyrrolo[2,3-b]pyridin-3-ylmethyl)-2,4-difluoro-phenyl]-3-(4-fluoro-phenyl)-urea]	IC50 [1]: ≤ 10 µM
		O=C(NCc1ccc(F)cc1)Nc1ccc(F)c(Cc2c[nH]c3ncc(Cl)cc23)c1F [Compound P-1654, 1-[3-(5-Chloro-1H-pyrrolo[2,3-b]pyridin-3-ylmethyl)-2,4-difluoro-phenyl]-3-(4-fluoro-benzyl)-urea]	IC50 [1]: ≤ 10 µM
≤ 10 µM	≤ 10 µM	CN(C)c1ccc(Cc2c[nH]c3ncccc23)cn1 [Compound P-0935]	
≤ 10 µM	≤ 10 µM	CCOc1cccc(Cc2c[nH]c3ncccc23)c1 [Compound P-0459]	
	≤ 10 µM	COc1cccc(C(=O)c2c[nH]c3ncc(Nc4ccccc4)cc23)c1 [Compound P-1120]	IC50 [3]: ≤ 10 µM
≤ 10 µM	≤ 10 µM	OC(c1ccc2c(c1)OC(F)(F)O2)c1c[nH]c2ncc(Br)cc12 (centres unmarked) [Compound P-1550]	IC50 [3]: ≤ 10 µM
≤ 10 µM		CCCS(=O)(=O)Nc1ccc(F)c(C(OC)c2c[nH]c3ncc(Br)cc23)c1F (centres unmarked) [Compound P-1275]	
≤ 10 µM		O=C(c1ccc2nsnc2c1)c1c[nH]c2ncc(-c3cccnc3)cc12 [Compound P-0905]	IC50 [3]: ≤ 10 µM
≤ 10 µM		O=C(c1cccc(OC(F)(F)F)c1)c1c[nH]c2ncc(-c3ccccc3)cc12 [Compound P-1408, (5-Phenyl-1H-pyrrolo[2,3-b]pyridin-3-yl)-(3-trifluoromethoxy-phenyl)-methanone]	
≤ 10 µM		O=C(c1cc(OC(F)F)cc(OC(F)F)c1)c1c[nH]c2ncc(-c3ccccc3)cc12 [Compound P-1521, (3,5-Bis-difluoromethoxy-phenyl)-(5-phenyl-1H-pyrrolo[2,3-b]pyridin-3-yl)-methanone]	

IC50 [2]	IC50 [4]	Structure (SMILES)	other results
≤ 10 µM		O=[N+]([O-])c1c[nH]c2nccc(Cl)c12 [Compound P-1096]	
≤ 10 µM	≤ 10 µM	O=C(c1ccccc1OCc1ccccc1)c1c[nH]c2ncc(Br)cc12 [Compound P-1382]	
	≤ 10 µM	FC(F)(F)Oc1cccc(Cc2c[nH]c3nccc(Br)c23)c1 [Compound P-1123]	IC50 [3]: ≤ 10 µM
		OC(c1cccc(OC(F)F)c1)c1c[nH]c2ncc(Br)cc12 (centres unmarked) [Compound P-1511]	IC50 [1]: ≤ 10 µM
		O=C(c1cccc(C(F)(F)F)c1)c1c[nH]c2ncc(-c3ccccc3)cc12 [Compound P-1405, (5-Phenyl-1H-pyrrolo[2,3-b]pyridin-3-yl)-(3-trifluoromethyl-phenyl)-methanone]	IC50 [1]: ≤ 10 µM
≤ 10 µM		Clc1ccc(-c2cnc3[nH]ccc3c2)cc1 [Compound P-0815]	
		O=C(NCC1CC1)Nc1ccc(F)c(Cc2c[nH]c3ncc(Cl)cc23)c1F [Compound P-1652, 1-[3-(5-Chloro-1H-pyrrolo[2,3-b]pyridin-3-ylmethyl)-2,4-difluoro-phenyl]-3-cyclopropylmethyl-urea]	IC50 [1]: ≤ 10 µM
≤ 10 µM		COc1ccc(C(=O)c2c[nH]c3ncc(Br)cc23)c(F)c1 [Compound P-1320]	
≤ 10 µM		O=C(c1cccc(OC(F)F)c1)c1c[nH]c2ncc(Br)cc12 [Compound P-1514, (5-Bromo-1H-pyrrolo[2,3-b]pyridin-3-yl)-(3-difluoromethoxy-phenyl)-methanone]	
≤ 10 µM	≤ 10 µM	O=C(c1cc(F)cc(C(F)(F)F)c1)c1c[nH]c2ncc(-c3ccccc3)cc12 [Compound P-1407, (3-Fluoro-5-trifluoromethyl-phenyl)-(5-phenyl-1H-pyrrolo[2,3-b]pyridin-3-yl)-methanone]	
≤ 10 µM	≤ 10 µM	FC(F)Oc1cc(Cc2c[nH]c3ncc(Br)cc23)cc(OC(F)F)c1 [Compound P-1538, 3-(3,5-Bis-difluoromethoxy-benzyl)-5-bromo-1H-pyrrolo[2,3-b]pyridine]	
≤ 10 µM	≤ 10 µM	Clc1ccc(Cc2c[nH]c3nccc(Br)c23)cn1 [Compound P-0447]	IC50 [3]: ≤ 10 µM
≤ 10 µM		COc1cccc(CCc2c[nH]c3ncccc23)c1 [Compound P-0450]	
	≤ 10 µM	COCCOc1ccc(F)c(Cc2c[nH]c3ncc(Br)cc23)c1F [Compound P-1454, 5-Bromo-3-[2,6-difluoro-3-(2-methoxy-ethoxy)-benzyl]-1H-pyrrolo[2,3-b]pyridine]	
	≤ 10 µM	OC(c1cccc2c1OC(F)(F)O2)c1c[nH]c2ncc(Br)cc12 (centres unmarked) [Compound P-1512]	
≤ 10 µM		COc1cccc(CCc2c[nH]c3ncc(-c4ccsc4)cc23)c1 [Compound P-0519]	
≤ 10 µM		OCc1cccc(-c2c(CNCC(O)c3ccc(O)cc3)[nH]c3ncccc23)c1 (centres unmarked) [Compound P-0554]	
	≤ 10 µM	Cc1cc(Cc2c[nH]c3ncccc23)ccc1F [Compound P-0510]	
	≤ 10 µM	CC(C)(C)Oc1ccc(Cc2c[nH]c3ncccc23)cn1 [Compound P-0819]	IC50 [3]: ≤ 10 µM
≤ 10 µM	≤ 10 µM	OCCOc1cccc(Cc2c[nH]c3ncccc23)c1 [Compound P-0411]	

IC50 [2]	IC50 [4]	Structure (SMILES)	other results
	≤ 10 µM	O=C(c1c(F)ccc(OCc2ccccc2)c1F)c1c[nH]c2ncc(-c3cccnc3)cc12 [Compound P-1467, (3-Benzyloxy-2,6-difluoro-phenyl)-(5-pyridin-3-yl-1H-pyrrolo[2,3-b]pyridin-3-yl)-methanone]	
	≤ 10 µM	COCCOc1ccc(F)c(C(=O)c2c[nH]c3ncc(OC)cc23)c1F [Compound P-1584, [2,6-Difluoro-3-(2-methoxy-ethoxy)-phenyl]-(5-methoxy-1H-pyrrolo[2,3-b]pyridin-3-yl)-methanone]	
≤ 10 µM		c1ccc(Nc2cnc3[nH]ccc3c2)cc1 [Compound P-0384]	
	≤ 10 µM	Fc1cc(F)cc(Cc2c[nH]c3ncccc23)c1 [Compound P-0374]	
	≤ 10 µM	Brc1ccc(Cc2c[nH]c3ncccc23)cc1 [Compound P-0615]	
	≤ 10 µM	O=C(c1c(F)ccc([N+](=O)[O-])c1F)c1c[nH]c2ncc(Br)cc12 [Compound P-1182]	
≤ 10 µM		O=C(c1ccc(Cl)cc1Cl)c1c[nH]c2ncc(Br)cc12 [Compound P-1565]	
	≤ 10 µM	COc1cccc(C(=O)c2c[nH]c3ncc(-c4cc(F)cc(F)c4)cc23)c1 [Compound P-0474]	
	≤ 10 µM	COc1ccc([N+](=O)[O-])cc1C(OC)c1c[nH]c2ncc(Br)cc12 (centres unmarked) [Compound P-1287]	
≤ 10 µM		COc1ccc(Sc2c[nH]c3ncc(Cl)cc23)nc1 [Compound P-1574]	
	≤ 10 µM	Cc1ccc(Cc2c[nH]c3ncccc23)cc1C [Compound P-0368]	
	≤ 10 µM	O=C(c1c(F)ccc(N(Cc2ccccc2)Cc2ccccc2)c1F)c1c[nH]c2ncc(-c3cccnc3)cc12 [Compound P-1074]	IC50 [3]: ≤ 10 µM
≤ 10 µM		O=C(c1ccc2c(c1)OC(F)(F)O2)c1c[nH]c2ncc(Br)cc12 [Compound P-1551, (5-Bromo-1H-pyrrolo[2,3-b]pyridin-3-yl)-(2,2-difluoro-benzo[1,3]dioxol-5-yl)-methanone]	
≤ 10 µM	≤ 10 µM	Cc1ccc(Cc2c[nH]c3ncccc23)cc1 [Compound P-0346]	
≤ 10 µM	≤ 10 µM	COc1cccc(Cc2c[nH]c3ncc(-c4ccc(Cl)s4)cc23)c1 [Compound P-0658]	
	≤ 10 µM	O=C(c1c(F)ccc(Cl)c1F)c1c[nH]c2ncccc12 [Compound P-1272]	
≤ 10 µM		c1ccc(Sc2c[nH]c3ncccc23)cc1 [Compound P-0626]	
	≤ 10 µM	Cc1ccc(F)cc1C(=O)c1c[nH]c2ncc(Br)cc12 [Compound P-0424]	
